The text below walks through data of patent US10259810B2, “N-sulfonylated pyrazolo[3,4-b]pyridin-6-carboxamides and method of use” (AbbVie S.à.r.l., priority 2015, dated 2019).

In experiment [1] the target is T1, ΔF508-CFTR (Homo sapiens, UniProt P13569, DEL508-508).
T1 construct: host or cells: CFBE41o-, doxycycline-inducible
Kind of experiment: CFTR cell surface levels using HRP-tagged ΔF508-CFTR expressing CFBE cells, intrinsic corrector capacity. In kind it is cell-based. Further details: % Activation: concentration or dose not given beside the values. The settings on record: HRP-tagged ΔF508-CFTR expressing CFBE41o- cells, compound alone (intrinsic corrector capacity), 20 hours at 33° C.; for EC50: read-out: EC50. The essentials: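 Surface ΔF508-CFTR was measured as HRP chemiluminescence from an extracellular-loop-4 tag, expressed as percent activity between DMSO and a […] corrector control.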

The target of experiment [2] is T1, ΔF508-CFTR. Kind of experiment: CFTR cell surface levels using HRP-tagged ΔF508-CFTR expressing CFBE cells, in the presence of a co-corrector. In kind it is cell-based. The conditions noted are these: HRP-tagged ΔF508-CFTR CFBE cells, in the presence of 3 μM co-corrector; for EC50: read-out: EC50. In a few lines:
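Chemiluminescent read-out of surface HRP (15 min, dark) after PBS washes. Activity is normalized as 100×(sample−DMSO)/(3 μM co-corrector alone−DMSO).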

T1 sequence (P13569 with tags, fused parts or gaps DEL508-508): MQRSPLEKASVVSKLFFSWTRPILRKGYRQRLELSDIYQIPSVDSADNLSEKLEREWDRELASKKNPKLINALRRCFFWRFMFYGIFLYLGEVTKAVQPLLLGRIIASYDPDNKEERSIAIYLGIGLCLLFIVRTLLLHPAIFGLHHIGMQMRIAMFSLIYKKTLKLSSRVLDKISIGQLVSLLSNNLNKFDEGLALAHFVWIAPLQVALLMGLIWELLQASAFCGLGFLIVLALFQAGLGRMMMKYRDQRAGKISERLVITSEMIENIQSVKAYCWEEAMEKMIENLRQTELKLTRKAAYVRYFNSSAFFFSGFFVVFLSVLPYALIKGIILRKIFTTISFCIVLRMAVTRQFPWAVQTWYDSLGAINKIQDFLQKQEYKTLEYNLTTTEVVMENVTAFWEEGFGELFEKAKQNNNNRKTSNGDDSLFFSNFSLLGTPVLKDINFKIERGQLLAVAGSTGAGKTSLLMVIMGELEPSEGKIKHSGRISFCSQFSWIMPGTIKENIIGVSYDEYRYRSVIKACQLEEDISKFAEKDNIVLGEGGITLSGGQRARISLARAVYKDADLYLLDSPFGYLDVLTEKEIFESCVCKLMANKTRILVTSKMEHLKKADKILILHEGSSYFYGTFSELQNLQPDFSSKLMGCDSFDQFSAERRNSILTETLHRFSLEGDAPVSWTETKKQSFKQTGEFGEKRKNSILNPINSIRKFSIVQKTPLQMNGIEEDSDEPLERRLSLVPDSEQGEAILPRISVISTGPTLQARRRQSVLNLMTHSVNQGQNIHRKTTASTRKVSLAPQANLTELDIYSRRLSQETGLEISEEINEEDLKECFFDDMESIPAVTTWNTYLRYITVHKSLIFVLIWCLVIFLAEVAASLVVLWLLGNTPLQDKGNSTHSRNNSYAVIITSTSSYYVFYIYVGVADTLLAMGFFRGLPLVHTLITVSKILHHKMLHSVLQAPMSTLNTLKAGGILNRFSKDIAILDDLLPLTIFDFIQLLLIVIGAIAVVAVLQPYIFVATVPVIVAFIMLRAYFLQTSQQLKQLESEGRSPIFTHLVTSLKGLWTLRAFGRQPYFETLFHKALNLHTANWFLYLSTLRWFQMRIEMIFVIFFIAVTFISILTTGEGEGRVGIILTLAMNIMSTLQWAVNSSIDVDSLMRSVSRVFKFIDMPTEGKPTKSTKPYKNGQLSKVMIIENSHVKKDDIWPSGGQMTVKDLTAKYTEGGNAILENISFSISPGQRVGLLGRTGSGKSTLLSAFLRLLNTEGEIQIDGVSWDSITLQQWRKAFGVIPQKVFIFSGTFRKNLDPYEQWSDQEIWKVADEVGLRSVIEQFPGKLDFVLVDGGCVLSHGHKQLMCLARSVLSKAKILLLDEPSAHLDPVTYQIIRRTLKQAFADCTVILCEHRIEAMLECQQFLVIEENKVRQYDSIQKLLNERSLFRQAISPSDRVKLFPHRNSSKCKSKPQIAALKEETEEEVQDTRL

Take `CS(=O)(=O)NC(=O)c1cc(-c2ccc(N3CCC(C#N)CC3)nc2)c2c(C3CCC3)nn(-c3ccnc(N4CCCC4)c3)c2n1` [Compound 189, 4-[6-(4-cyanopiperidin-1-yl)pyridin-3-yl]-3-cyclobutyl-N-(methanesulfonyl)-1-[2-(pyrrolidin-1-yl)pyridin-4-yl]-1H-pyrazolo[3,4-b]pyridine-6-carboxamide]: at ΔF508-CFTR [1], the “% Activation” value is on record as 236.2% and the EC50 was 421 nM. Also, at ΔF508-CFTR [2], the “% Activation” value was determined as 409.6% and the EC50 stood at 236 nM.

On to `CS(=O)(=O)NC(=O)c1cc(N2CC3(CCCCC3)C2)c2c(C3CCC3)nn(-c3ccccc3)c2n1` [Compound 192, 4-(2-azaspiro[3.5]nonan-2-yl)-3-cyclobutyl-N-(methanesulfonyl)-1-phenyl-1H-pyrazolo[3,4-b]pyridine-6-carboxamide], for which the “% Activation” value was 81.49% on ΔF508-CFTR [1] and 254.6% on ΔF508-CFTR [2]. Moreover, the figures for the EC50 at ΔF508-CFTR [1] and at ΔF508-CFTR [2] were 1140 nM and 866 nM, respectively.

As to `CO[C@H]1C[C@@H](c2nn(-c3ccccc3)c3nc(C(=O)NS(C)(=O)=O)cc(-c4ccc(N5CCC(C#N)CC5)nc4)c32)C1` [Compound 194, 4-[6-(4-cyanopiperidin-1-yl)pyridin-3-yl]-N-(methanesulfonyl)-3-(cis-3-methoxycyclobutyl)-1-phenyl-1H-pyrazolo[3,4-b]pyridine-6-carboxamide], the “% Activation” value was found to be 213.75% on ΔF508-CFTR [1] and 427.45% on ΔF508-CFTR [2]. Besides, the EC50 was determined as 745 nM at ΔF508-CFTR [1] and 371 nM on ΔF508-CFTR [2].

For `CS(=O)(=O)NC(=O)c1cc(-c2ccc(N3CCC(C#N)CC3)nc2)c2c(C3CC(F)(F)C3)nn(-c3ccccc3)c2n1` [Compound 195, 4-[6-(4-cyanopiperidin-1-yl)pyridin-3-yl]-3-(3,3-difluorocyclobutyl)-N-(methanesulfonyl)-1-phenyl-1H-pyrazolo[3,4-b]pyridine-6-carboxamide], the “% Activation” value at ΔF508-CFTR [1] was 225.2%; on ΔF508-CFTR [2], 387.47%. For the same molecule, the EC50 at ΔF508-CFTR [1] came out at 370 nM; at ΔF508-CFTR [2] it was 192 nM.

Turning to `CC1(C)CC(c2nn(-c3ccccc3)c3nc(C(=O)NS(C)(=O)=O)cc(-c4ccc(N5CCC(C#N)CC5)nc4)c23)C1` [Compound 196, 4-[6-(4-cyanopiperidin-1-yl)pyridin-3-yl]-3-(3,3-dimethylcyclobutyl)-N-(methanesulfonyl)-1-phenyl-1H-pyrazolo[3,4-b]pyridine-6-carboxamide], the results for the “% Activation” value on ΔF508-CFTR [1] and on ΔF508-CFTR [2] were 188.47% and 387.1%, respectively. The EC50 at ΔF508-CFTR [1] amounted to 339 nM; on ΔF508-CFTR [2], 231 nM.

As to `CS(=O)(=O)NC(=O)c1cc(-c2ccc(N3CCC(C#N)CC3)nc2)c2c(C3CC(F)C3)nn(-c3ccccc3)c2n1` (stereo not shown) [Compound 197, 4-[6-(4-cyanopiperidin-1-yl)pyridin-3-yl]-3-(3-fluorocyclobutyl)-N-(methanesulfonyl)-1-phenyl-1H-pyrazolo[3,4-b]pyridine-6-carboxamide], the figures for the “% Activation” value at ΔF508-CFTR [1] and at ΔF508-CFTR [2] were 220.2% and 390.8%, respectively. Besides, the EC50 at ΔF508-CFTR [1] came out at 397 nM; on ΔF508-CFTR [2], 194 nM.

Regarding `CS(=O)(=O)NC(=O)c1cc(N2CCC3(C2)CC3(F)F)c2c(C3CCC3)nn(-c3ccccc3)c2n1` (stereo not shown) [Compound 202, 3-cyclobutyl-4-(1,1-difluoro-5-azaspiro[2.4]heptan-5-yl)-N-(methanesulfonyl)-1-phenyl-1H-pyrazolo[3,4-b]pyridine-6-carboxamide], on ΔF508-CFTR [1], the “% Activation” value turned out to be 147.23% and the EC50 amounted to 595 nM. Moreover, on ΔF508-CFTR [2], the “% Activation” value amounted to 299.4% and the EC50 turned out to be 255 nM.

For `CS(=O)(=O)NC(=O)c1cc(N2CC3(CCCCO3)C2)c2c(C3CCC3)nn(-c3ccccc3)c2n1` [Compound 203, 3-cyclobutyl-N-(methanesulfonyl)-4-(5-oxa-2-azaspiro[3.5]nonan-2-yl)-1-phenyl-1H-pyrazolo[3,4-b]pyridine-6-carboxamide], at ΔF508-CFTR [1], the “% Activation” value was found to be 82.59% and the EC50 came to 1020 nM. Also, on ΔF508-CFTR [2], the “% Activation” value came to 224.63% and the EC50 turned out to be 328 nM.

As to `CS(=O)(=O)NC(=O)c1cc(N2CC3(CCOCC3)C2)c2c(C3CCC3)nn(-c3ccccc3)c2n1` [Compound 204, 3-cyclobutyl-N-(methanesulfonyl)-4-(7-oxa-2-azaspiro[3.5]nonan-2-yl)-1-phenyl-1H-pyrazolo[3,4-b]pyridine-6-carboxamide], on ΔF508-CFTR [1], the “% Activation” value worked out at 117.6% and the EC50 came to 978 nM. Also, at ΔF508-CFTR [2], the “% Activation” value was 288.6% and the concentration giving a half-maximal response (EC50) amounted to 490 nM.

For the molecule `CS(=O)(=O)NC(=O)c1cc(N2CCCC3(CC3)C2)c2c(C3CCC3)nn(-c3ccccc3)c2n1` [Compound 205, 4-(5-azaspiro[2.5]octan-5-yl)-3-cyclobutyl-N-(methanesulfonyl)-1-phenyl-1H-pyrazolo[3,4-b]pyridine-6-carboxamide], at ΔF508-CFTR [1], the “% Activation” value stood at 208.5% and the EC50 is 956 nM. Further, on ΔF508-CFTR [2], the “% Activation” value is 416.4% and the EC50 was 856 nM.

For `COCCN(C)c1cc(C(=O)NS(C)(=O)=O)nc2c1c(C1CCC1)nn2-c1ccccc1` [Compound 206, 3-cyclobutyl-N-(methanesulfonyl)-4-[(2-methoxyethyl)(methyl)amino]-1-phenyl-1H-pyrazolo[3,4-b]pyridine-6-carboxamide], the “% Activation” value on ΔF508-CFTR [1] turned out to be 169.03%; at ΔF508-CFTR [2] it was 387.03%. Further, the EC50 came to 1400 nM on ΔF508-CFTR [1] and 890 nM at ΔF508-CFTR [2].

Regarding `COC1CCN(c2cc(C(=O)NS(=O)(=O)C3CCN(C(=O)OCc4ccccc4)CC3)nc3c2c(C2CCC2)nn3-c2ccccc2)CC1` [Compound 208, benzyl 4-{[3-cyclobutyl-4-(4-methoxypiperidin-1-yl)-1-phenyl-1H-pyrazolo[3,4-b]pyridine-6-carbonyl]sulfamoyl}piperidine-1-carboxylate], the “% Activation” value on ΔF508-CFTR [1] came to 190.55%; on ΔF508-CFTR [2] it was 419.15%. For the same molecule, the EC50 at ΔF508-CFTR [1] was 402 nM; on ΔF508-CFTR [2], 364 nM.

In the case of `CS(=O)(=O)NC(=O)c1cc(-c2ccc(N3CCC(C#N)CC3)nc2)c2c(n1)n(-c1ccccc1)nc2[C@H]1C[C@@H](F)C1` [Compound 209, 4-[6-(4-cyanopiperidin-1-yl)pyridin-3-yl]-3-(cis-3-fluorocyclobutyl)-N-(methanesulfonyl)-1-phenyl-1H-pyrazolo[3,4-b]pyridine-6-carboxamide], at ΔF508-CFTR [1], the “% Activation” value came out at 247.6% and the EC50 was 381 nM. Further, at ΔF508-CFTR [2], the “% Activation” value is given as 393.6% and the EC50 stood at 231 nM.

In the case of `CS(=O)(=O)NC(=O)c1cc(-c2ccc(N3CCC(C#N)CC3)nc2)c2c(n1)n(-c1ccccc1)nc2[C@H]1C[C@H](F)C1` [Compound 210, 4-[6-(4-cyanopiperidin-1-yl)pyridin-3-yl]-3-(trans-3-fluorocyclobutyl)-N-(methanesulfonyl)-1-phenyl-1H-pyrazolo[3,4-b]pyridine-6-carboxamide], on ΔF508-CFTR [1], the “% Activation” value turned out to be 205.57% and the EC50 is 286 nM. Besides, at ΔF508-CFTR [2], the “% Activation” value amounted to 390.57% and the EC50 turned out to be 174 nM.

For the molecule `CO[C@H]1CC[C@@H](Oc2cc(C(=O)NS(C)(=O)=O)nc3c2c(C2CCC2)nn3-c2ccccc2)CC1` [Compound 211, 3-cyclobutyl-N-(methanesulfonyl)-4-[(cis-4-methoxycyclohexyl)oxy]-1-phenyl-1H-pyrazolo[3,4-b]pyridine-6-carboxamide], on ΔF508-CFTR [1], the “% Activation” value was 114.4% and the EC50 stood at 608 nM. Further, on ΔF508-CFTR [2], the “% Activation” value amounted to 288.3% and the EC50 was determined as 293 nM.

Turning to `CO[C@H]1CC[C@H](Oc2cc(C(=O)NS(C)(=O)=O)nc3c2c(C2CCC2)nn3-c2ccccc2)CC1` [Compound 212, 3-cyclobutyl-N-(methanesulfonyl)-4-[(trans-4-methoxycyclohexyl)oxy]-1-phenyl-1H-pyrazolo[3,4-b]pyridine-6-carboxamide], on ΔF508-CFTR [1], the “% Activation” value stood at 114.63% and the EC50 came out at 621 nM. On ΔF508-CFTR [2], the “% Activation” value came to 290.43% and the EC50 turned out to be 324 nM.

On to `CS(=O)(=O)NC(=O)c1cc(N2CCC(COCc3ccccc3)CC2)c2c(C3CCC3)nn(-c3ccccc3)c2n1` [Compound 213, 4-{4-[(benzyloxy)methyl]piperidin-1-yl}-3-cyclobutyl-N-(methanesulfonyl)-1-phenyl-1H-pyrazolo[3,4-b]pyridine-6-carboxamide], for which the “% Activation” value on ΔF508-CFTR [1] is recorded as 267.5%; at ΔF508-CFTR [2], 469.6%. The EC50 on ΔF508-CFTR [1] was 546 nM; at ΔF508-CFTR [2], 337 nM.

With `CS(=O)(=O)NC(=O)c1cc(N2CC3(CCC3)C2)c2c(C3CCC3)nn(-c3ccccc3)c2n1` [Compound 214, 4-(2-azaspiro[3.3]heptan-2-yl)-3-cyclobutyl-N-(methanesulfonyl)-1-phenyl-1H-pyrazolo[3,4-b]pyridine-6-carboxamide], at ΔF508-CFTR [1], the “% Activation” value stood at 103.6% and the EC50 is 1010 nM. Further, on ΔF508-CFTR [2], the “% Activation” value was found to be 250.55% and the EC50 came out at 384 nM.

On to `CC(=O)N1CCC2CN(c3cc(C(=O)NS(C)(=O)=O)nc4c3c(C3CCC3)nn4-c3ccccc3)CCC21` (stereo not shown) [Compound 216, 4-(1-acetyloctahydro-5H-pyrrolo[3,2-c]pyridin-5-yl)-3-cyclobutyl-N-(methanesulfonyl)-1-phenyl-1H-pyrazolo[3,4-b]pyridine-6-carboxamide], for which, on ΔF508-CFTR [1], the “% Activation” value came out at 275.67% and the EC50 stood at 766 nM. Moreover, at ΔF508-CFTR [2], the “% Activation” value is recorded as 456.1% and the EC50 was found to be 300 nM.
